In ChEMBL document CHEMBL5360622, “Leucettinibs, a Class of DYRK/CLK Kinase Inhibitors Inspired by the Marine Sponge Natural Product Leucettamine B” (J Med Chem, 2023):

Key:
[1] = molecular target: Dual specificity protein kinase CLK2 (Homo sapiens, UniProt P49760)
[2] = molecular target: T1, Dual specificity tyrosine-phosphorylation-regulated kinase 4 (Homo sapiens, UniProt Q9NR20)
T1 sequence (Q9NR20 whole entry): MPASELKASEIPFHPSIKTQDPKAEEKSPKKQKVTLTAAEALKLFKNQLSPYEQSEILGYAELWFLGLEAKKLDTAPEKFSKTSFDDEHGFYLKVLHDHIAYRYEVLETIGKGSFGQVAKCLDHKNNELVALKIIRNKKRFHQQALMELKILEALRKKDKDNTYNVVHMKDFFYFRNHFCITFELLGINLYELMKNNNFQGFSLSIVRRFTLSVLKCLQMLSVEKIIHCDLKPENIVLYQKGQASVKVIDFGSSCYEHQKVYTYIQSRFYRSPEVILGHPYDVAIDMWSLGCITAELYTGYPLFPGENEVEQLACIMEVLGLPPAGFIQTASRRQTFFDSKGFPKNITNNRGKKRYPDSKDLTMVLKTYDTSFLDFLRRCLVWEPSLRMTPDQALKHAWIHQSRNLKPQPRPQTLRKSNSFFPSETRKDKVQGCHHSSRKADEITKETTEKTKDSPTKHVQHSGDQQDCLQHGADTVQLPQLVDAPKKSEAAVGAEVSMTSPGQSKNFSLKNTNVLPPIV

[3] = molecular target: Dual specificity protein kinase CLK4 (Homo sapiens, UniProt Q9HAZ1)
Chain of Dual specificity protein kinase CLK4 (Q9HAZ1 whole entry): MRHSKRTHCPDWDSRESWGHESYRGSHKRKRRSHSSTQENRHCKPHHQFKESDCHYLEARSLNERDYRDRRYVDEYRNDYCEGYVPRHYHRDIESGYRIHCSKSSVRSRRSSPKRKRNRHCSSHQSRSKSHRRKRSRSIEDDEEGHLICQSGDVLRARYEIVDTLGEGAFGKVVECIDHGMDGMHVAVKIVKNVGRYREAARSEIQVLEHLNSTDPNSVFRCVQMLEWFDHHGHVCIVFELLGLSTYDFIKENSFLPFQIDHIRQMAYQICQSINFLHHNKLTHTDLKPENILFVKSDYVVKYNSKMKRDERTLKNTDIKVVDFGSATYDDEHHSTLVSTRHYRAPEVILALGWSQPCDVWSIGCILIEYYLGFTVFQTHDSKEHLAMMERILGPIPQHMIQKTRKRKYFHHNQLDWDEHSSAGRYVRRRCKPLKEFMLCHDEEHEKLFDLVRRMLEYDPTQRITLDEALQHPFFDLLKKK

[4] = molecular target: Dual specificity protein kinase CLK3 (Homo sapiens, UniProt P49761); assay type: cell-based, Sf9
Chain of Dual specificity protein kinase CLK3 (P49761 whole entry): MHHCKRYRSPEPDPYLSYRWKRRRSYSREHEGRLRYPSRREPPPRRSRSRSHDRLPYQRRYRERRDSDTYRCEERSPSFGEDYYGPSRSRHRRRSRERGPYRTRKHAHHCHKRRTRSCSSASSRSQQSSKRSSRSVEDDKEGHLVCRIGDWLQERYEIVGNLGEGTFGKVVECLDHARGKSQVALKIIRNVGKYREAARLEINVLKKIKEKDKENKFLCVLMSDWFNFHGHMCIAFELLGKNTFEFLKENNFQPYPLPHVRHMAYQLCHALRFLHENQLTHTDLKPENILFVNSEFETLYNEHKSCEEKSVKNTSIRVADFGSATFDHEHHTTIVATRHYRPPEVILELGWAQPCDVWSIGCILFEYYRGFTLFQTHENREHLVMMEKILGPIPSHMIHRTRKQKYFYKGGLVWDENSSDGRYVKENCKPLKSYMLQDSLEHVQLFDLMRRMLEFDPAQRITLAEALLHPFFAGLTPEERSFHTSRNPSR

[5] = molecular target: Glycogen synthase kinase-3 beta (Homo sapiens, UniProt P49841); assay type: cell-based, Sf9
Chain of Glycogen synthase kinase-3 beta (P49841 whole entry): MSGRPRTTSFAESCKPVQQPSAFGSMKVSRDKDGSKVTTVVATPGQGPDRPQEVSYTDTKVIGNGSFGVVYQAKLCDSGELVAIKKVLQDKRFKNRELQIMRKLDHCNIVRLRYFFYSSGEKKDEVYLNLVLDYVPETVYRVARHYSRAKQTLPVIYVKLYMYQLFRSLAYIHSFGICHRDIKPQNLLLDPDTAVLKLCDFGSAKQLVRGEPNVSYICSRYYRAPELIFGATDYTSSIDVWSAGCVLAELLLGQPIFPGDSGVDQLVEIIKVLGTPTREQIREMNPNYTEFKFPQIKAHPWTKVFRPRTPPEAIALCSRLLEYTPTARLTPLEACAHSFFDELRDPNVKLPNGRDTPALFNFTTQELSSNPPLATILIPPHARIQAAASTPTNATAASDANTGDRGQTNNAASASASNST

[6] = molecular target: Cyclin-dependent kinase 5/CDK5 activator 1 (Homo sapiens, UniProt Q00535); assay type: cell-based, Sf9
Chain of Cyclin-dependent kinase 5/CDK5 activator 1 (Q00535 whole entry, canonical isoform): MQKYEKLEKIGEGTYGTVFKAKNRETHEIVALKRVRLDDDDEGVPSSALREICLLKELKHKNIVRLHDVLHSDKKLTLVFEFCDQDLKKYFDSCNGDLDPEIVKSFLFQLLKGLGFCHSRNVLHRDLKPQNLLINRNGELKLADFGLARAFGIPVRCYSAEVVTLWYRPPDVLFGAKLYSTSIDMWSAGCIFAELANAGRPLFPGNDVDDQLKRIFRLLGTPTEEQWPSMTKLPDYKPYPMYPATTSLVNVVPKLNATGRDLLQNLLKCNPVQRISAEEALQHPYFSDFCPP
Chain of Cyclin-dependent kinase 5/CDK5 activator 1 (Q15078 whole entry, further chain, canonical isoform): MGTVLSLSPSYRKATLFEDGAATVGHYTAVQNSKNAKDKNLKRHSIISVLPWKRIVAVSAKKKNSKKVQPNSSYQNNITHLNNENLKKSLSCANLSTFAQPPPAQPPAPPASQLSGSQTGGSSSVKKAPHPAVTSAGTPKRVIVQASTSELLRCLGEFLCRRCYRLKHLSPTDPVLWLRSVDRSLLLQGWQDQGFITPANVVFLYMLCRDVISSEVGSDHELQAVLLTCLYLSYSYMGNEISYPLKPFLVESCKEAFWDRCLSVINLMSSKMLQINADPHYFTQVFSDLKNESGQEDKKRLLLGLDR

[7] = molecular target: Casein kinase I isoform epsilon (Homo sapiens, UniProt P49674)
Chain of Casein kinase I isoform epsilon (P49674 whole entry, canonical isoform): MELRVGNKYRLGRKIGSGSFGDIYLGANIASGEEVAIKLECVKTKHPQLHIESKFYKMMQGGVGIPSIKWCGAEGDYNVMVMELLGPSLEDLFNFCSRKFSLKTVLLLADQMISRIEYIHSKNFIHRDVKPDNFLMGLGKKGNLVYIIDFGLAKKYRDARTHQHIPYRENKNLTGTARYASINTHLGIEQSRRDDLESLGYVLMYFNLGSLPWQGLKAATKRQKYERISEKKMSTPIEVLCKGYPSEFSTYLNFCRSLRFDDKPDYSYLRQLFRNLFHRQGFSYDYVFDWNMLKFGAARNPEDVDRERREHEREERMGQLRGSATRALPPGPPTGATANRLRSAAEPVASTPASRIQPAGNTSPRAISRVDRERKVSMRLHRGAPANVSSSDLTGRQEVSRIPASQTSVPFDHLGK

[8] = molecular target: T2, Dual specificity tyrosine-phosphorylation-regulated kinase 2 (Homo sapiens, UniProt Q92630)
T2 sequence (Q92630 whole entry): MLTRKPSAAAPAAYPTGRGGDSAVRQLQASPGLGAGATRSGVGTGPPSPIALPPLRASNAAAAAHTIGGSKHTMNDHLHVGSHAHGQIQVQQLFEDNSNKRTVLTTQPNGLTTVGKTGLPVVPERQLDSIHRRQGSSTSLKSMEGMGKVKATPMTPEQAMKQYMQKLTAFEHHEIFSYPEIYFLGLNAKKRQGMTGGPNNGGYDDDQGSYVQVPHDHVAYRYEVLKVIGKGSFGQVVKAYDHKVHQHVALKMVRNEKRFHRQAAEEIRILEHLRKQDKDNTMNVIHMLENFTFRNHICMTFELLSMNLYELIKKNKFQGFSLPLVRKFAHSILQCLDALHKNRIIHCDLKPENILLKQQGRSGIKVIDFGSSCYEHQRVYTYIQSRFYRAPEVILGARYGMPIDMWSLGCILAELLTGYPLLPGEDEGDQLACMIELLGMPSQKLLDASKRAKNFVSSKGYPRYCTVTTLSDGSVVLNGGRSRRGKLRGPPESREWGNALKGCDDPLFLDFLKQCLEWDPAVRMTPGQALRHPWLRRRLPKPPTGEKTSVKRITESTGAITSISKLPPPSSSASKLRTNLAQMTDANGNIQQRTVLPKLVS

[9] = molecular target: T3, Dual specificity tyrosine-phosphorylation-regulated kinase 3 (Homo sapiens, UniProt O43781)
T3 sequence (O43781 whole entry): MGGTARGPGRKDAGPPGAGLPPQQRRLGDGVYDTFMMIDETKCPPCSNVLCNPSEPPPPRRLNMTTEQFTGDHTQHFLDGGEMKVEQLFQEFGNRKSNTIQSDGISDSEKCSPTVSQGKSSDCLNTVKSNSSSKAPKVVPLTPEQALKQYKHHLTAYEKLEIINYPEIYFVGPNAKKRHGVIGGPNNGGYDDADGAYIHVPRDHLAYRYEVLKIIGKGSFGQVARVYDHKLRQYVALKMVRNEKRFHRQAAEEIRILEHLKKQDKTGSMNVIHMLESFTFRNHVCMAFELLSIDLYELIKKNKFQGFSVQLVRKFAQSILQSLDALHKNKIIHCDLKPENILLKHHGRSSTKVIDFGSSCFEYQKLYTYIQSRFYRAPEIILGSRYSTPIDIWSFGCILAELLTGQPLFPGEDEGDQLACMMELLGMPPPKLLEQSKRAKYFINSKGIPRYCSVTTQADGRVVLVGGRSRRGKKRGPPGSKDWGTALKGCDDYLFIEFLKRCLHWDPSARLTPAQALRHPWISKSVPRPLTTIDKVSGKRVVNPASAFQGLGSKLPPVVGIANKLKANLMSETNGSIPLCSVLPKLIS

Chain of Dual specificity protein kinase CLK2 (P49760 whole entry): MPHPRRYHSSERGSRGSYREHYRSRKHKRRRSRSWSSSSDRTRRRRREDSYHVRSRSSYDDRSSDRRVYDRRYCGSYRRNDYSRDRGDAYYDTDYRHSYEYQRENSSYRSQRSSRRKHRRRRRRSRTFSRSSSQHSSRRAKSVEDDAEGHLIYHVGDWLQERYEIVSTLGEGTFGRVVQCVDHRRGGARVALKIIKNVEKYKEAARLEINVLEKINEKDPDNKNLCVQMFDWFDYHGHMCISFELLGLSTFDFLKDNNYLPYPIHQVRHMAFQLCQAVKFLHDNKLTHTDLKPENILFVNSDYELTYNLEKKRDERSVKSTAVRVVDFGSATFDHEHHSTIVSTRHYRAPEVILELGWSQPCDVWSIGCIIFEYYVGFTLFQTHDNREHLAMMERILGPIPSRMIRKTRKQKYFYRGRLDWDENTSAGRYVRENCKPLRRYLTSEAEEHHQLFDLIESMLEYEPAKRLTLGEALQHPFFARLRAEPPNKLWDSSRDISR

Row | Structure (SMILES) | IC50 [1] [nM] | IC50 [2] [nM] | IC50 [3] [nM] | IC50 [4] [nM] | IC50 [5] [nM] | IC50 [6] [nM] | IC50 [7] [nM] | IC50 [8] [nM] | IC50 [9] [nM]
1 | O=C1NC(N[C@@H](CO)CC2CCCCC2)=N/C1=C\c1ccc2ncsc2c1 | 100 | 3120 | 26 | 4390 | 3310 | > 10000 | > 10000 |  | 
2 | COC(=O)C1(NC2=N/C(=C\c3ccc4ncsc4c3)C(=O)N2)C2CC3CC(C2)CC1C3 (stereo not given) | 531 | 1740 | 161 | 167 | 659 | 3290 | > 10000 | 702 | 
3 | CO[C@H]1CC[C@H](NC2=N/C(=C\c3ccc4ncsc4c3)C(=O)N2)CC1 |  | 2600 | 24 | 880 | 13000 | > 10000 | > 10000 | 2300 | 1900
4 | CC(=O)OC12CC3CC(CC(NC4=N/C(=C\c5ccc6ncsc6c5)C(=O)N4)(C3)C1)C2 | 14 | 597 | 19 | 1660 | 2440 | 4660 | > 10000 | 145 | 
5 | CC1(NC2=N/C(=C\c3ccc4ncsc4c3)C(=O)N2)CCNC1=O (racemic) | 56 | 591 |  | 532 | 6280 | > 10000 | > 10000 | 189 | 592
6 | Cc1nc2ccc(/C=C3\N=C(NC4CCCCC4)NC3=O)cc2s1 |  | > 10000 | 351 | 5040 | > 10000 | > 10000 | > 10000 | 4710 | 
7 | Cc1ccc(CNC2=N/C(=C\c3ccc4ncsc4c3)C(=O)N2)cc1C | 31 |  | 14 | 1240 | > 10000 | > 10000 | > 10000 | > 10000 | > 10000
8 | Cc1ccc(NC2=N/C(=C\c3ccc4ncsc4c3)C(=O)N2)cc1F | 3520 |  | 71 | > 10000 | > 10000 | > 10000 | > 10000 | 6530 | 3060
9 | CN1CCC2(CC1)CC(NC1=N/C(=C\c3ccc4ncsc4c3)C(=O)N1)C2 | 851 |  | 107 | 7460 | > 10000 | > 10000 | > 10000 | 4470 | 403
10 | O=C1NC(NCC(O)C2CCCCC2)=N/C1=C\c1ccc2ncsc2c1 (racemic) | 46 | 319 |  | 299 | 3080 | > 10000 | 6930 | 1090 | 357
11 | O=C1NC(NC(CF)c2ccccc2)=N/C1=C\c1ccc2ncsc2c1 (racemic) | 13 | 459 |  | 293 | 947 | > 10000 | > 10000 | 530 | 477
12 | O=C1NC(NCCc2ccccn2)=N/C1=C\c1ccc2ncsc2c1 | 349 | 2150 | 34 | 697 | 3710 | > 10000 | > 10000 | 1350 | 
13 | O=C1NC(NC2CC3CCC2C3)=N/C1=C\c1ccc2ncsc2c1 (racemic) | 127 | 260 |  | 143 | 3260 | > 10000 | > 10000 | 240 | 337
14 | O=C1NC(NC2CCCSC2)=N/C1=C\c1ccc2ncsc2c1 (racemic) | 37 | 246 |  | 107 | 7220 | 2490 | > 10000 | 124 | 335
